Where two headings read alike, the source gives them in different places.
Legend:
[1] = Observed clearance ratio and fraction reabsorbed (Freab, Freab′) calculated from CLR, fu,p and GFR; settings: for Freab: observed/apparent, 1 - CLR/(GFR x fu,p), GFR 120 mL/min
Protocol: The clearance ratio was calculated from clinical data using Eqs. […] For the remaining drugs the fraction reabsorbed (Freab) was calculated using Eq.
GFR values for healthy subjects may vary as a result of biological as well as inter-individual variation and also the method of measurement. […] Individual GFR values for subjects in clinical trials databases were generally not available.
In the proposed model, the nephron is represented as five compartments, namely the glomerulus and four tubular regions, as depicted in Fig. 1. The tubular compartments in the model, listed in anatomical order starting from the glomerulus are: the proximal tubule (PT), the loop of Henle (LoH), the distal tubule (DT) and the collecting duct (CD). […] The relationship between Freab′ and Freab is shown in Eq. (11). The predicted overall Freab′ was calculated from the predicted Freab′ in each (i) tubular region (Freab,i′), as shown in Eq. (12).

[2] = cited from earlier work
[3] = Ionisation classification at pH 6.5 from pKa; type: physicochemical; settings: predominant species (> 50%) at pH 6.5 from measured or calculated pKa
Description: (§1) The pKa values associated with ionisable centres identified within a given drug were used to calculate the fraction of drug ionised at pH 6.5. Drugs were then classified into groups as follows: drugs with > 50% unionised at pH 6.5 were classified as “Neutral”; drugs with > 50% ionised as mono −/di −/tri-protic acids or bases were classified as “Acid” or “Base”, respectively; “Zwitterions” were classified as drugs with > 50% ionised, with the major ionised species having no net charge; all other drugs were classified as amphoteric. […] LogD6.5 for neutral, amphoteric and zwitterion drugs were assumed to be equal to LogD7.4.

[4] = Caco-2 apparent permeability (Papp), apical to basolateral, pH 6.5-7.4 gradient, efflux inhibitor cocktail; settings: human, Caco-2, pH 6.5
Protocol: The assay was performed using the apical to basolateral pH gradient format of pH 6.5 to pH 7.4. […] The efflux transporter inhibitor cocktail was used to minimise the effect of efflux transporters expressed in Caco-2 cells (e.g. P-glycoprotein, BCRP and MRP2) on the estimate of apical to basolateral Papp of substrates for such transporters.

[5] = LogD6.5 estimated from LogD7.4 and pKa; settings: for logD: octanol/buffer
Description: as §1

[6] = LogD7.4 octanol-buffer, shake-flask (or ACD / BioByte); settings: pH 7.4; for logD: octanol/buffer
Description: as §1

[7] = calculated from observed CLR, fu,p and GFR
[8] = healthy adult subjects, overall weighted mean of literature values, absolute (not normalised), ref Supplementary Results Table S2.1
[9] = healthy subjects, plasma and urine data from same subjects, normalised for subject weight and body surface area where necessary, ref Table S2.1
[10] = overall weighted mean of values obtained from a literature survey, ref Table S2.1

SMILES	Apparent Freab [1, 7]	Apparent Freab’ [1, 7]	CLR [2, 8] [mL/min]	Overall weighted mean CLR [2, 9] [mL/min]	CLR Observed [2, 10] [mL/min]	further results
CCCc1cc(=O)[nH]c(=S)[nH]1 [Propylthiouracil]	0.833	0.840	3.20	3.2	3.20	Freab [1]: 0.83
CC(C)NCC(O)COc1ccc(CC(N)=O)cc1 (stereo not shown) [Atenolol]	-0.247	-0.249				Ionisation at pH 6.5 [3]: Base
CN(C)CCC(c1ccc(Cl)cc1)c1ccccn1 (stereo not shown) [Chlorpheniramine]						Papp A→B at 2 h [4]: 285 nm/s
Cn1c(=O)c2c(ncn2C)n(C)c1=O [Caffeine]	0.987	0.995	1.06	1.1	1.06	Freab [1]: 0.99; Freab ([1]; listed as caffeine): ≥ 0.99
CC[C@@H](C(N)=O)N1CCCC1=O [Levetiracetam]	0.636	0.641	39.4	39.4	39.35	Freab [1]: 0.64; Ionisation at pH 6.5 [3]: Neutral; Papp A→B at 2 h [4]: 157 nm/s
CC(=O)NC[C@H]1CN(c2ccc(N3CCOCC3)c(F)c2)C(=O)O1 [Linezolid]	0.576	0.581	39.5	39.5	39.54	Freab [1]: 0.58
C[C@]12C=CC(=O)C=C1CC[C@@H]1[C@@H]2[C@@H](O)C[C@@]2(C)[C@H]1CC[C@]2(O)C(=O)CO [Prednisolone]	0.099	0.100	34.3	34.3	34.30	Freab [1]: 0.10; Ionisation at pH 6.5 [3]: Neutral; LogD6.5 ([5]; calculated from pKa and LogD7.4): […]
Cc1ncc([N+](=O)[O-])n1CCO [Metronidazole]	0.918	0.925	9.64	9.6	9.64	Freab [1]: 0.92; Ionisation at pH 6.5 [3]: Neutral; Papp A→B at 2 h [4]: 647 nm/s
COc1c(N2C[C@@H]3CCCN[C@@H]3C2)c(F)cc2c(=O)c(C(=O)O)cn(C3CC3)c12 [Moxifloxacin]						Ionisation at pH 6.5 [3]: Zwitterion
C[C@H]1C[C@H]2[C@@H]3CCC4=CC(=O)C=C[C@]4(C)[C@@]3(F)[C@@H](O)C[C@]2(C)[C@@]1(O)C(=O)CO [Betamethasone]	0.780	0.787	9.50	9.5	9.50	Freab [1]: 0.78; logD [6]: 1.99; Ionisation at pH 6.5 [3]: Neutral; logD ([5]; pH 6.5): 1.99
Nc1ccc(S(=O)(=O)c2ccc(N)cc2)cc1 [Dapsone]			5.50	5.5	5.50	logD [6]: 0.85; Ionisation at pH 6.5 [3]: Neutral; logD ([5]; pH 6.5): 0.85; Papp A→B at 2 h [4]: 497 nm/s
Cc1cc(=O)n(-c2ccccc2)n1C [Antipyrine]						Apparent Freab ([1]; human, in vivo): 0.989; Apparent Freab’ ([1]; human, in vivo): 0.997; Ionisation at pH 6.5 [3]: Neutral; CLR ([2]; human, in vivo): 1.22 mL/min; CLR Observed ([2]; human, in vivo): 1.22 mL/min; Overall weighted mean CLR ([2]; human, in vivo): 1.2 mL/min
OC(Cn1cncn1)(Cn1cncn1)c1ccc(F)cc1F [Fluconazole]	0.848	0.855	15.7	15.7	15.68	Freab [1]: 0.85; Papp A→B at 2 h [4]: 363 nm/s
CN(C)CCCC1(c2ccc(F)cc2)OCc2cc(C#N)ccc21 (stereo not shown) [Citalopram]	-0.086	-0.087	65.2	65.2	65.17	Ionisation at pH 6.5 [3]: Base
CC1(C)S[C@@H]2[C@H](NC(=O)C(C(=O)O)c3ccccc3)C(=O)N2[C@H]1C(=O)O (stereo partly shown) [Carbenicillin]				127.0		
O=C1Nc2ccc(Cl)cc2C(c2ccccc2Cl)=NC1O (stereo not shown) [Lorazepam]				0.3		
CC1(C)S[C@@H]2[C@H](NC(=O)[C@H](NC(=O)c3cnc4cccnc4c3O)c3ccccc3)C(=O)N2[C@H]1C(=O)O [Apalcillin]				29.0		

SMILES	Apparent Freab [1, 7]	Apparent Freab’ [1, 7]	CLR [2, 8] [mL/min]	Overall weighted mean CLR [2, 9] [mL/min]	CLR Observed [2, 10] [mL/min]	further results
C[C@@H](CN1CC(=O)NC(=O)C1)N1CC(=O)NC(=O)C1 [Dexrazoxane]				133.3		
Cn1c(=O)c2[nH]cnc2n(C)c1=O [Theophylline]			5.50	5.5	5.50	LogD7.4 [6]: − 0.09; Ionisation at pH 6.5 [3]: Neutral; LogD6.5 ([5]; pH 6.5): − 0.06
CC(CC(c1ccccc1)c1ccccc1)NC(C)(C)C (stereo not shown) [Terodiline]				11.1		
CC(CN1c2ccccc2Sc2ccccc21)N(C)C (stereo not shown) [Promethazine]				5.9		
CCCCC(=O)N(Cc1ccc(-c2ccccc2-c2nnn[nH]2)cc1)[C@H](C(=O)O)C(C)C [Valsartan]				11.2		
CO[C@H]1/C=C/O[C@@]2(C)Oc3c(C)c(O)c4c(c3C2=O)C2=NC3(CCN(CC(C)C)CC3)NC2=C(NC(=O)/C(C)=C\C=C\[C@H](C)[C@H](O)[C@@H](C)[C@@H](O)[C@@H](C)[C@H](OC(C)=O)[C@@H]1C)C4=O [Rifabutin]				58.4		
Cc1cn([C@H]2C[C@H](N=[N+]=[N-])[C@@H](CO)O2)c(=O)[nH]c1=O [Zidovudine]				258.1		
COc1ccc2c3c1O[C@H]1C[C@@H](O)C=C[C@@]31CCN(C)C2 [Galantamine]				57.7		
CN(C)[C@@H]1C(O)=C(C(N)=O)C(=O)[C@@]2(O)C(O)=C3C(=O)c4c(O)cccc4[C@@](C)(O)[C@H]3C[C@@H]12 [Tetracycline]	0.053	0.053	86.4	86.4	86.38	Freab [1]: 0.05; Papp A→B at 2 h [4]: 11 nm/s
CC(C)(C)NC[C@H](O)COc1nsnc1N1CCOCC1 [Timolol]				125.1		
Cc1cccc(C)c1OCC(C)N (stereo not shown) [Mexiletine]	-0.252	-0.254	71.6	71.6	71.61	
CNC(C)Cc1ccc2c(c1)OCO2 (stereo not shown) [MDMA]				215.0		
CCCC(=O)Nc1ccc(OCC(O)CNC(C)C)c(C(C)=O)c1 (stereo not shown) [Acebutolol]				222.8		
CCN(CC)CCNC(=O)c1ccc(NS(C)(=O)=O)cc1 [Sematilide]				262.0		
Cc1onc(-c2c(F)cccc2Cl)c1C(=O)N[C@@H]1C(=O)N2[C@@H]1SC(C)(C)[C@@H]2C(=O)O [Flucloxacillin]				90.9		
NC1CCN(c2c(F)cc3c(=O)c(C(=O)O)cn(C4CC4)c3c2Cl)C1 (stereo not shown) [Clinafloxacin]				191.0		
CCn1cc(C(=O)O)c(=O)c2cc(F)c(N3CCNC(C)C3)c(F)c21 (stereo not shown) [Lomefloxacin]				155.8		

Reference: PMC5074076, “Novel minimal physiologically-based model for the prediction of passive tubular reabsorption and renal excretion clearance” (European Journal of Pharmaceutical Sciences, 2016)
